ChEMBL document CHEMBL5465560, “Selectivity Literature for EUbOPEN Chemogenomic Library” (2024)

What was measured:
[1] = target: Serine/threonine-protein kinase WNK1 (Homo sapiens) (UniProt Q9H4A3); assay: Selectivity interaction (KinomeScan (DiscoverX)) EUB0000666a WNK1; conditions: at 10 µM
[2] = target: T1, Histone-arginine methyltransferase CARM1 (Homo sapiens) (UniProt Q86X55); conditions: at 10 µM
T1 sequence (whole entry): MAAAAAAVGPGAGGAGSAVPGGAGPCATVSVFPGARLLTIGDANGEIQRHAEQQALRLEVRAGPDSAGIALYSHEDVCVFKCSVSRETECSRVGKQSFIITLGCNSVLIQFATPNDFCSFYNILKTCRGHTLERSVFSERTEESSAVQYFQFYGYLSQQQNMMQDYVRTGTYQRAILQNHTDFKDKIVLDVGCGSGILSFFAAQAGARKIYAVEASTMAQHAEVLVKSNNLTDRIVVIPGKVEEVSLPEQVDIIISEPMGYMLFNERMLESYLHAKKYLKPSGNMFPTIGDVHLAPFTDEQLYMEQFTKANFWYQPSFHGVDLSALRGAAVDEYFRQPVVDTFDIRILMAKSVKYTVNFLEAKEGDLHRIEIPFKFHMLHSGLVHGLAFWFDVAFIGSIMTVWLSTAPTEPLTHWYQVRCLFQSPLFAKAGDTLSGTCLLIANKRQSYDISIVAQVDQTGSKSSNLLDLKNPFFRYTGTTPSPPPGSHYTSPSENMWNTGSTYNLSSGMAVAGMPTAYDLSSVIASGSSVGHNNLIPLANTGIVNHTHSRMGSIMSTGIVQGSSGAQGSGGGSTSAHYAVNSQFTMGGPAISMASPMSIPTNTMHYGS

[3] = target: Mast/stem cell growth factor receptor Kit (Homo sapiens, UniProt P10721); assay: Selectivity interaction (Kinase panel (Eurofins)) EUB0001564a KIT; conditions: at 1 µM
[4] = target: T2, Serine/threonine-protein kinase RIO3 (Homo sapiens) (UniProt O14730); assay: Selectivity interaction (KinomeScan (DiscoverX)) EUB0000092b RIOK3; conditions: at 10 µM
T2 sequence (whole entry): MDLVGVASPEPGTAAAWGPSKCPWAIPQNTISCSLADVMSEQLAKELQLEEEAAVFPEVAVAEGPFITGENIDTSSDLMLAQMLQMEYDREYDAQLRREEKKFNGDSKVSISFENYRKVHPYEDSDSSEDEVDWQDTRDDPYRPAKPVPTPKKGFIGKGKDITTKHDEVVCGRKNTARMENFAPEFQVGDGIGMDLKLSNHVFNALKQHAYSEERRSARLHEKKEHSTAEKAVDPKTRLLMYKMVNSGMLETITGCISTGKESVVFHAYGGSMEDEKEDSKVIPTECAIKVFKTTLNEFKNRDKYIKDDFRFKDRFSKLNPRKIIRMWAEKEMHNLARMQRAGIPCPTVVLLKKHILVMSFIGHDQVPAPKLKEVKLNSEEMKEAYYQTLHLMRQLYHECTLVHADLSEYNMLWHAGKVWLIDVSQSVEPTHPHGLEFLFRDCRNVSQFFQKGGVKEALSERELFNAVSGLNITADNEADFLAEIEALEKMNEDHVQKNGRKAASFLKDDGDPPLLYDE

[5] = target: Calcium/calmodulin-dependent protein kinase type 1D (Homo sapiens) (UniProt Q8IU85); assay: Selectivity interaction (KinomeScan (DiscoverX)) EUB0000092b CAMK1D; conditions: at 10 µM
Calcium/calmodulin-dependent protein kinase type 1D (Homo sapiens), sequence (Q8IU85 whole entry, looked up): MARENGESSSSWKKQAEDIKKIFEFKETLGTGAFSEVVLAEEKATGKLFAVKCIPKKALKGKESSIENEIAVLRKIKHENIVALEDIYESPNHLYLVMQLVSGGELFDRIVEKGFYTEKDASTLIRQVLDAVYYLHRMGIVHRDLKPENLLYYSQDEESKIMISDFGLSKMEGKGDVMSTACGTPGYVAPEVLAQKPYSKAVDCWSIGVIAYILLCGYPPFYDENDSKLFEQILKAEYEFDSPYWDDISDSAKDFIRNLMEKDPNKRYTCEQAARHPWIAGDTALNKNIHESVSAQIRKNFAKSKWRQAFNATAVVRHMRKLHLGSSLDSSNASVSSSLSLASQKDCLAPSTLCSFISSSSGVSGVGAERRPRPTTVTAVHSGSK

[6] = target: T3, Serine/threonine-protein kinase Nek2 (Homo sapiens) (UniProt P51955); assay: Selectivity interaction (Ambit KINOMEscan and KiNATiv profiling in Jurkat cells) EUB0000090b NEK2; type: cell-based; conditions: at 1 µM
T3 sequence (whole entry): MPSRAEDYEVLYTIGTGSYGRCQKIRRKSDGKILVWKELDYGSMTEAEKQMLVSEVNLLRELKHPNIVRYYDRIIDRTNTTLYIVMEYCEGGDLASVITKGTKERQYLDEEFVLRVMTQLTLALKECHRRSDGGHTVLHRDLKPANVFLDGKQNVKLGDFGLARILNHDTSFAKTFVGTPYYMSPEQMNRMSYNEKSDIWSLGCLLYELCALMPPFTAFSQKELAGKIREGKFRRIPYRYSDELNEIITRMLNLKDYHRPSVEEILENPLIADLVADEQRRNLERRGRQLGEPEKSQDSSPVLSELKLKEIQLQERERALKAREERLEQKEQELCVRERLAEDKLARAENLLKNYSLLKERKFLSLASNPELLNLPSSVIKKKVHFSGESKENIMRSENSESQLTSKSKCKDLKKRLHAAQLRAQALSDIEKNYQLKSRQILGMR

[7] = target: Phosphatidylinositol 4,5-bisphosphate 3-kinase catalytic subunit gamma isoform (Homo sapiens) (UniProt P48736); assay: Selectivity interaction (KinomeScan (DiscoverX)) EUB0000045b PIK3CG
Phosphatidylinositol 4,5-bisphosphate 3-kinase catalytic subunit gamma isoform (Homo sapiens), sequence (P48736 whole entry, looked up, canonical isoform): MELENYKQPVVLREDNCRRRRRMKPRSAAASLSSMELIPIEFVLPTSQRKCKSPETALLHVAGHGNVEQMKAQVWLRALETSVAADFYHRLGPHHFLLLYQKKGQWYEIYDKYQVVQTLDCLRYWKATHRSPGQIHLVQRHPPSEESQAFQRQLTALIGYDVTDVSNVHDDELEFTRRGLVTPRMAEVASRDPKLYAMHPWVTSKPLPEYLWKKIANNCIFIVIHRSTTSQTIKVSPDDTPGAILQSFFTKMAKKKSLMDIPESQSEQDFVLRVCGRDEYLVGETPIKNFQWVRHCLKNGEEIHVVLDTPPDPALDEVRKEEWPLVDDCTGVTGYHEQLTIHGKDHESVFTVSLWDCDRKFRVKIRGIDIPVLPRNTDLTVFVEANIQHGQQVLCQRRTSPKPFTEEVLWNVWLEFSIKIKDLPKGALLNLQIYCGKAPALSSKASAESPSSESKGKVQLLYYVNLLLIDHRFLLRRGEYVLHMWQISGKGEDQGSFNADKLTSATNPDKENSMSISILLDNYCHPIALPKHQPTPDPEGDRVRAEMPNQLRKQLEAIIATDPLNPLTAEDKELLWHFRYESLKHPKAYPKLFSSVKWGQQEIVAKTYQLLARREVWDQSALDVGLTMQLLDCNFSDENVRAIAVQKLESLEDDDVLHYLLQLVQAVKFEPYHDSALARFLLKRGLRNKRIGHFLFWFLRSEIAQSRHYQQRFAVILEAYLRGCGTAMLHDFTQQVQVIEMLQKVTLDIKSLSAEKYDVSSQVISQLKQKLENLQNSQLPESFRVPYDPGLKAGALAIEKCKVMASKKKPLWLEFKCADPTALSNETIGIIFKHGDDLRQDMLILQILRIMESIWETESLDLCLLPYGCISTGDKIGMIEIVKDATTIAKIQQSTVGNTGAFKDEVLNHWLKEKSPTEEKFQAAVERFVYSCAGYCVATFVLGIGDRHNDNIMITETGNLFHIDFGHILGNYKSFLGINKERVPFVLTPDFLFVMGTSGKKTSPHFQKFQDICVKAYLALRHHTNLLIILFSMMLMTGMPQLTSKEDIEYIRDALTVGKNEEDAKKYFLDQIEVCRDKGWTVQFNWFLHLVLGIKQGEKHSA

[8] = target: Focal adhesion kinase 1 (Homo sapiens, UniProt Q05397); conditions: at 10 µM
[9] = target: T4, Serine/threonine-protein kinase Sgk2 (Homo sapiens) (UniProt Q9HBY8); assay: Selectivity interaction (KinomeScan (DiscoverX)) EUB0000695a SGK2; conditions: at 100 nM
T4 sequence (whole entry): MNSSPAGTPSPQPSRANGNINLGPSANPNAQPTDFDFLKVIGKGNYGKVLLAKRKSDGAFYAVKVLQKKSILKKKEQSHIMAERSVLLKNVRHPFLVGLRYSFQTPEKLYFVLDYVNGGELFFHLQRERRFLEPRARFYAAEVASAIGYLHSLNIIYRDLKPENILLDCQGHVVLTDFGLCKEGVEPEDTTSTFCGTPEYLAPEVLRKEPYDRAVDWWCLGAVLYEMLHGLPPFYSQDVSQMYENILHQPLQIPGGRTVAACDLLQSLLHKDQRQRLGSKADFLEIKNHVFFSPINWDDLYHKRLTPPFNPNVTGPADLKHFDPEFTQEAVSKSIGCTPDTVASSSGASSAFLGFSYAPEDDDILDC

[10] = target: Mitogen-activated protein kinase 6 (Homo sapiens) (UniProt Q16659); assay: Selectivity interaction (KinomeScan (DiscoverX)) EUB0000695a MAPK6; conditions: at 100 nM
[11] = target: Mitogen-activated protein kinase 7 (Homo sapiens) (UniProt Q13164); assay: Selectivity interaction (KinomeScan (DiscoverX)) EUB0000607a MAPK7; conditions: at 10 µM
Mitogen-activated protein kinase 7 (Homo sapiens), sequence (Q13164 2-816 limits assumed): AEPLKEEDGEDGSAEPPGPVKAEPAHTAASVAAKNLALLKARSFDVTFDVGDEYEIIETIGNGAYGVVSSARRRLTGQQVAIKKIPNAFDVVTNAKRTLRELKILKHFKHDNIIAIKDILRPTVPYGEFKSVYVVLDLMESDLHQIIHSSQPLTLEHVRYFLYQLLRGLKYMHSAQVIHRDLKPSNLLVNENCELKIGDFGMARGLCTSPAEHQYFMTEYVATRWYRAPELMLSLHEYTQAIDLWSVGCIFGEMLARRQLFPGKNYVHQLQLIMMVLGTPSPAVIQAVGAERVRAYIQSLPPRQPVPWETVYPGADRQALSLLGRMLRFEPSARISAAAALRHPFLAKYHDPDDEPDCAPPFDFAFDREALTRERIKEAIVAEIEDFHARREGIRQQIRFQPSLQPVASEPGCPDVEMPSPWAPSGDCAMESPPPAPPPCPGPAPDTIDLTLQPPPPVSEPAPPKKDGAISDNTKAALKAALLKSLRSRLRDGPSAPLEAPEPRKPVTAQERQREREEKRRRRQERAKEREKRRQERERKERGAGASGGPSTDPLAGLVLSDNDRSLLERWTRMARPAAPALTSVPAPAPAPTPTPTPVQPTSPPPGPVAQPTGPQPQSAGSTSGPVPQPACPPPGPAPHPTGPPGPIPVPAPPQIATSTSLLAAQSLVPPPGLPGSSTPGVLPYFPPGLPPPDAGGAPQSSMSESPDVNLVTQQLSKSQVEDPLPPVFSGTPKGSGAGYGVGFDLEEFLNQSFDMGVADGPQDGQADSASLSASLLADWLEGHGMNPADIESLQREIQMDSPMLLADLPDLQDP

Serine/threonine-protein kinase WNK1 (Homo sapiens), sequence (Q9H4A3 whole entry, looked up): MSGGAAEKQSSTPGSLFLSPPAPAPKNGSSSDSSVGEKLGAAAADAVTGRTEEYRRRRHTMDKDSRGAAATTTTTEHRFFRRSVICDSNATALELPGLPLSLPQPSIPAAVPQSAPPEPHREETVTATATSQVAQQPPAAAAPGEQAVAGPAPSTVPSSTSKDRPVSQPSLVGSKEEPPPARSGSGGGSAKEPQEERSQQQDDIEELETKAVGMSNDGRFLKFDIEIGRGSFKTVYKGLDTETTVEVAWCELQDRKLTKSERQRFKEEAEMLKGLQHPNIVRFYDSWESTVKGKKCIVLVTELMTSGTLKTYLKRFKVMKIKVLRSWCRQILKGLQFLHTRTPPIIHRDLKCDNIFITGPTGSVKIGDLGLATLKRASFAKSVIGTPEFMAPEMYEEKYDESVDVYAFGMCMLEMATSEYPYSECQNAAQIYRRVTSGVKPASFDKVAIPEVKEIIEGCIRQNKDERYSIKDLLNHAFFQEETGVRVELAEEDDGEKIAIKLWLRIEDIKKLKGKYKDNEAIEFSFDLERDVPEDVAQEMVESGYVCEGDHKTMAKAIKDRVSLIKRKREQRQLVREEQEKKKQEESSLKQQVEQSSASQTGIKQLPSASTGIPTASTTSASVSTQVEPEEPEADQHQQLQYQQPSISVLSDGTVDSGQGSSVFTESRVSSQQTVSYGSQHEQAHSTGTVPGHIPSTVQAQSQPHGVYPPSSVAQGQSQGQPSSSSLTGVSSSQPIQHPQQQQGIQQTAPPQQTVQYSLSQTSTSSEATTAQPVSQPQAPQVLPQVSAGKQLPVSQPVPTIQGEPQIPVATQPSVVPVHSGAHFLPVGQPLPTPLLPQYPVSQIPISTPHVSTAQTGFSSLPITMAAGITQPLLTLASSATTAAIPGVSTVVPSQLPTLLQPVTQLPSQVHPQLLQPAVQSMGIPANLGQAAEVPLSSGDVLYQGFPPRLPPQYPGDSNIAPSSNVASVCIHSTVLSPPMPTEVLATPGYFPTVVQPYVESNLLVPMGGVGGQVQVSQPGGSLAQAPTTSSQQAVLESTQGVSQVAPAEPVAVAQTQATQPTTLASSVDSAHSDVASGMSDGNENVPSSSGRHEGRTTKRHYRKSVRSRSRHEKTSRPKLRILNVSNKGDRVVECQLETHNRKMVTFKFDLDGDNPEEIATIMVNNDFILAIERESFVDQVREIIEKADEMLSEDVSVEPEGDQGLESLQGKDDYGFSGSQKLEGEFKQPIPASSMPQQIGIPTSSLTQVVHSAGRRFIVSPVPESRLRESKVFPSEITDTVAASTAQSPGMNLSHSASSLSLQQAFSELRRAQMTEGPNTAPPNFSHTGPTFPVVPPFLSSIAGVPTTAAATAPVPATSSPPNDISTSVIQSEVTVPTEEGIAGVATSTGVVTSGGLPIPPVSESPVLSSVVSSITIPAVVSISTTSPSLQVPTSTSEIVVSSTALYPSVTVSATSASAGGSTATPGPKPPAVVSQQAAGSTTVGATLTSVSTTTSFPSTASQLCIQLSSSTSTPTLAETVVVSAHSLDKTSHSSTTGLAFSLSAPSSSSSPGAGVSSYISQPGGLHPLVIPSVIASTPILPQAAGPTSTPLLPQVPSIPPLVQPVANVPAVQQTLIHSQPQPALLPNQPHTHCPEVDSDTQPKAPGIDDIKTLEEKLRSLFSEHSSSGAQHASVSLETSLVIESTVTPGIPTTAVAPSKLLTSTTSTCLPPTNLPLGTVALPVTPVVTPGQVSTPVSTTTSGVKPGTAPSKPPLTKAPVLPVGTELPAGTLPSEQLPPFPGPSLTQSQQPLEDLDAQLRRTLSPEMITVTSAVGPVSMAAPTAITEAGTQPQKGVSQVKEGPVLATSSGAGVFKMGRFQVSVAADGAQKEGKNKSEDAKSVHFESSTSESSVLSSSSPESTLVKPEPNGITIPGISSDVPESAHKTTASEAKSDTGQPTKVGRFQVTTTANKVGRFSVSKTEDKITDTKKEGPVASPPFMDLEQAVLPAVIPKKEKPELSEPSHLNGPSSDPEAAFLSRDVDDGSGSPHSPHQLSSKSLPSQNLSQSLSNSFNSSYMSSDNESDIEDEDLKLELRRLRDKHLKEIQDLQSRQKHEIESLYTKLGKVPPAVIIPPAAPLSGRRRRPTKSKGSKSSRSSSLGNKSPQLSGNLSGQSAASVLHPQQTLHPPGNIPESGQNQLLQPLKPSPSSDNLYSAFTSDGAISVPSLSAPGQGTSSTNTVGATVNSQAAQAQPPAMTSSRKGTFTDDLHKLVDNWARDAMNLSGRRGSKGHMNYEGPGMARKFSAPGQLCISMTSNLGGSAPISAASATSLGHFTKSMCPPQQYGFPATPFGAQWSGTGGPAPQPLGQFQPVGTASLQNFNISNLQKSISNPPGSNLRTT

Compound: O=C(NOC[C@H](O)CO)c1ccc(F)c(F)c1Nc1ccc(I)cc1F
- % of control [1]: 92%

Compound: CNCCN1CCC(c2cc(CN(C)C(=O)c3cccc(Oc4ccccc4)c3)ccn2)CC1
- % activity [2]: 1%

Compound: CC[C@@H](Nc1c(C#N)c(-c2ccc(-c3cccc(C)c3F)cc2)nc2cnccc12)C(=O)O [BAY-091]
- % of inhibition [3]: 22.3%

Compound: CCC(=O)N1CCN(c2ccc(-n3c(=O)ccc4cnc5ccc(-c6cnc7ccccc7c6)cc5c43)cc2C(F)(F)F)CC1
- % of control [4]: 90%
- % of control [5]: 88%

Compound: CN(C)C/C=C/C(=O)Nc1ccc(C(=O)N2CCCC(Nc3ncc(Cl)c(-c4c[nH]c5ccccc45)n3)C2)cc1 (configuration not stated)
- % of control [6]: 97%

Compound: C=CC(=O)Nc1cc(-n2c(=O)ccc3cnc4ccc(-c5ccc(NS(C)(=O)=O)cc5)cc4c32)ccc1C
- % of control ([7]; at 1 µM): 2.8%
- % of control ([7]; at 10 µM): 0%

Compound: Cc1cc([C@@H](C)Nc2ccccc2C(=O)O)c2nc(N3CCOCC3)cc(=O)n2c1 [AZD-6482]
- % of control [8]: 88%

Compound: Cc1cc(F)c(C(=O)Nc2cccc(-c3nncn3C(C)C)n2)cc1-n1cnc(C2CC2)c1
- % of control [9]: 100%
- % of control [10]: 81%

Compound: CNC(=O)Nc1ccc(-c2nc(N3CC4CCC(C3)O4)c3cnn(C4CCC5(CC4)OCCO5)c3n2)cc1
- % of control [11]: 100%
